Data: the OPERA property sets (Mansouri et al. 2018)

Row | Structure (SMILES) | logP
1 | Cc1c(Cl)ccc(OC(C)C(O)=Nc2ccccc2)c1Cl (configuration not stated) | 4.8
2 | CCCCCCOC(N)=O | 1.85
3 | COC(=O)c1cnc2ccccc2c1 | 2.25
4 | O=C(O)COc1ccc(O)cc1 | 0.65
5 | O=Cc1ccccn1 | 0.44
6 | Cc1ccc(OC(=O)c2ccc(N)cc2O)cc1 | 3.38
7 | C=CCOc1noc2c1CNCC2 | 0.56
8 | COc1ccc(NC(C)=O)cc1 | 1.03
9 | Nc1ccc(Cc2ccc(N)cc2)cc1 | 1.59
10 | CCCCOCC | 2.03
11 | CCOC(=O)c1c[nH]cc1C | 2.14
12 | S=C=Nc1ccc2ccccc2c1 | 4.34
13 | Clc1ccc(-c2ccc(Cl)c(Cl)c2Cl)c(Cl)c1Cl | 7.31
14 | N#CCc1cccs1 | 1.26
15 | Cc1ccccc1N | 1.32
16 | CN(C)c1ccc2c(c1)C(c1ccccc1Cl)=NCC(=O)N2C | 2.72
17 | CC(=O)[C@H]1CC[C@H]2[C@@H]3CC=C4C[C@@H](O)CC[C@]4(C)[C@H]3CC[C@]12C | 4.22
18 | CC(=O)Oc1ccccc1C(=O)O | 1.19
19 | CCCCC1OC(=O)c2ccccc21 (configuration not stated) | 2.8
20 | COc1nccnc1NS(=O)(=O)c1ccc(N)cc1 | 0.7
21 | Oc1cc(O)c2ccccc2c1 | 1.97

Row | Structure (SMILES) | logP
22 | COC(=O)Nc1nc2ccccc2[nH]1 | 1.52
23 | CCCC(O)C(C(=O)O)c1ccc(-c2ccccc2)cc1 (configuration not stated) | 3.75
24 | CCNc1nc(Cl)nc(NC(C)C)n1 | 2.61
25 | COc1cccnc1 | 0.99
26 | CC1(C)Oc2c(O)cccc2C1=O | 1.87
27 | c1ccc(Cc2ccncc2)cc1 | 2.62
28 | Nc1nc(N)nc(-c2ccccc2Br)n1 | 1.26
29 | C=CCNC(=O)NCC=C | 0.64
30 | CCCCCBr | 3.37
31 | CCC(=O)OC1(C(C)=O)C(C)CC2C3CCC4=CC(=O)C=CC4(C)C3(F)C(O)CC21C (configuration not stated) | 3.09
32 | c1ccc2c(c1)CCC2 | 3.18
33 | Cc1cc(C)cc(O)c1 | 2.35
34 | Cc1cc(NN)ncn1 | 0.62
35 | CC(C)N | 0.26
36 | O=C(O)COc1ccc(Cl)c(Br)c1 | 2.75
37 | O=[N+]([O-])O[C@H]1CO[C@H]2[C@@H]1OC[C@H]2O[N+](=O)[O-] | 1.31
38 | NNC(=O)c1ccnc(F)c1 | -0.11
39 | COc1ccc(CC(C)N)cc1 (configuration not stated) | 1.77
40 | O=C1C(Cl)=C(Nc2ccccc2)C(=O)c2ccccc21 | 4.22
41 | CC(Cl)(Cl)C(=O)O | 0.78
42 | CCCCOC(=O)n1cnc(CC(NC(=O)C2CCC(=O)N2)C(=O)N2CCCC2C(N)=O)c1 (configuration not stated) | -0.47

Row | Structure (SMILES) | logP
43 | CCc1cccc(OC(=O)NC)c1 | 2.2
44 | CNn1cc(C(=O)O)c(=O)c2cc(F)c(N3CCN(C)CC3)cc21 | 0.23
45 | NC(=O)C1CCCN1C(=O)C(Cc1cn(C(=O)OC2CCCCC2)cn1)NC(=O)C1CCC(=O)N1 (configuration not stated) | 0.6
46 | Cc1cccc2ncc(-c3ccccc3)c(=O)n12 | 2.59
47 | CCc1ccccc1OC(C)=O | 2.42
48 | CC(=O)Nc1cccc(N(C)C)c1 | 1.29
49 | Cn1ccccc1=O | -0.23
50 | CCCSP(=O)(OCC)Oc1ccc(Br)cc1Cl (configuration not stated) | 4.68
51 | FC(F)(F)c1ccccc1Cl | 3.53
52 | Cc1cc(C(=O)NNCc2ccccc2)no1 | 1.49
53 | CCOP(=O)(OCC)SCSCC | 2.07
54 | NNC(=O)c1ccnc(Cl)c1 | 0.11
55 | CC12CCC(=O)C=C1CCC1C2C(O)CC2(C)C1CCC2(O)C(=O)COC(=O)CCCCCO (configuration not stated) | 2.79
56 | CCOc1ccccc1O | 1.68
57 | O=[N+]([O-])c1cc[n+]([O-])c2ccccc12 | 1.09
58 | Cc1cc(C)ncn1 | 0.62
59 | O=C1CN=C(c2ccccc2F)c2ccccc2N1 | 2.38
60 | O=CC(Cl)(Cl)Cl | 0.99
61 | COc1cccc2c1C(=N)c1c(O)c3c(c(O)c1C2=O)CC(O)(C(=O)CO)CC3OC1CC(N2CCOCC2)C(O)C(C)O1 (configuration not stated) | 1.8
62 | O=C(Nc1ccccc1)NC1CC(O)C(CO)OC1O (configuration not stated) | -0.61
63 | CC(=O)Oc1cccc2ccccc12 | 2.78

Row | Structure (SMILES) | logP
64 | O=C1CN=C(c2ccccc2Cl)c2cc([N+](=O)[O-])ccc2N1 | 2.41
65 | Oc1ccc(Cl)c(O)c1 | 1.8
66 | O=[N+]([O-])c1cccc(Br)c1 | 2.64
67 | COC(=O)CCCCCC(=O)OC | 1.38
68 | CNc1ccc([N+](=O)[O-])cc1 | 2.04
69 | CC(=O)Oc1c[nH]c2ccccc12 | 2.01
70 | CCc1cc([N+](=O)[O-])cc([N+](=O)[O-])c1O | 2.67
71 | C=CCOc1ccc(CC(=O)O)cc1Cl | 2.48
72 | N#CCCN(CCC#N)N=O | 0.08
73 | NC(=O)Nc1ccccc1 | 0.83
74 | CCCN(CCC)C1CCOc2c(O)cccc21 (configuration not stated) | 3.3
75 | CC1(C)O[C@@H]2C[C@H]3[C@@H]4C[C@H](F)C5=CC(=O)C=C[C@]5(C)[C@@]4(F)[C@@H](O)C[C@]3(C)[C@]2(C(=O)CO)O1 | 2.48
76 | CCN(CC)C(=O)C(C)Oc1cccc2ccccc12 (configuration not stated) | 3.36
77 | Clc1cc(Cl)c2c(Cl)ccc(Cl)c2c1 | 5.76
78 | COC(=O)CCc1ccccc1 | 2.32
79 | O=C(c1ccccc1)c1ccc(O)cc1 | 3.07
80 | Oc1ccc(Cn2cc[nH]c2=S)cc1F | 1.12
81 | CCCCCNC(=O)c1ccc(S(N)(=O)=O)cc1 | 1.51
82 | COC(=O)CC(C)C | 1.82
